The results in this text go back to US6060485A, “Arylacetic amide derivative or salt thereof, and pharmaceutical comprising it” (SSP Co., Ltd., priority 1997, dated 2000).

SMILES strings stand for the structures. Structures can show the parent of a compound that is named as a salt. Where two headings read alike, the source gives them in different places.

Experiment [1] has as its system carbachol-induced hypersialosis. In words: Action against carbachol-induced hypersialosis (salivation, oral). The class given is in vivo, SD male rats. The following applies: for ED50: Rattus norvegicus, read-out: Salivation inhibitory action ID50; for Selectivity: bladder over salivation, propiverine hydrochloride = 1.0; for Salivation inhibitory action / Bladder contraction inhibitory action: ratio of ID50 values. As for the experimental part:
Action against carbachol-induced hypersialosis Testing method
A test compound was orally administered to each of SD male rats weighing 100 to 150 g. Thirty minutes later, 0.1 mg/kg of carbachol was intraperitoneally administered. Immediately after the administration of carbachol, the rat was fixed by hands under non-anesthesia and under this condition, the saliva was wiped off with a cotton ball for 10 minutes. The weight of the saliva so obtained was measured.

Experiment [2] relates to acetylcholine-induced bladder contraction. In words: Action against acetylcholine-induced bladder contraction (intraduodenal). The conditions noted are these: Rattus norvegicus, 2 h, read-out: Bladder contraction inhibitory action ID50. The class given is in vivo, SD male rats. As for the experimental part: Action against acetylcholine-induced bladder contraction Testing method
SD male rats weighing 230 to 390 g were each fixed on its back under intraperitoneal anesthesia with 500 mg/kg of urethane and 50 mg/kg of α-chloralose. Then, its bladder was exposed by midline abdominal incision. Into the top part of the bladder, a polyethylene tube filled with physiological saline was inserted and intracystic pressure was measured. Into the femoral vein, a venous cannula for administration of a drug was inserted, through which 10 μg/kg of acetylcholine were administered to induce bladder contraction. Then, acetylcholine was administered at intervals of 10 minutes. After the bladder contraction by acetylcholine became stable, the stomach was subjected to midline incision and the test compound was intraduodenally administered using an injection needle.
The bladder contraction was measured as a difference of intracystic pressure before and after the administration of acetylcholine.

[3] abbreviates: SD male rats, oral, 30 minutes before carbachol 0.1 mg/kg i.p., saliva weight over 10 minutes.
[4] abbreviates: SD male rats, intraduodenal, acetylcholine 10 μg/kg i.v., intracystic pressure, observed 120 minutes.

As for `CCCCOC(C(=O)NC1CCN(Cc2ccccc2)CC1)(c1ccccc1)C(C)C` (centres unmarked) [Compound No. 4, N-(1-benzyl-4-piperidinyl)-2-butoxy-3-methyl-2-phenylbutanamide], in experiment [1] (setting [3]), the ED50 worked out at 56.6 mg/kg. Besides, in experiment [1], the Selectivity is recorded as 6.2 and the “Salivation inhibitory action / Bladder contraction inhibitory action” value amounted to 5.8. The ED50 in experiment [2] (setting [4]) was 9.8 mg/kg.
On to `CCN(CC)CC#CCOC(=O)C(O)(c1ccccc1)C1CCCCC1` (centres unmarked) [Oxybutynin hydrochloride, reference compound], for which the ED50 in experiment [1] (po) came out at 3.5 mg/kg. Also, in experiment [1], the Selectivity came to 1.1 and the “Salivation inhibitory action / Bladder contraction inhibitory action” value stood at 1.0. For the same compound, in experiment [2], the ED50 was determined as 3.4 mg/kg.
For the compound `CCCOC(C(=O)OC1CCN(C)CC1)(c1ccccc1)c1ccccc1` [Propiverine hydrochloride, reference compound], the ED50 came to 9.2 mg/kg in experiment [1] (setting [3]) and 9.9 mg/kg in experiment [2] (setting [4]). The compound also came in with a Selectivity in experiment [1] of 1.0. For the same compound, in experiment [1], the “Salivation inhibitory action / Bladder contraction inhibitory action” value was found to be 0.9.
Consider `CCCOC(C(=O)NC1CCN(Cc2ccccc2)CC1)(c1ccccc1)C(C)C` (centres unmarked) [compound 3], for which, in experiment [1] (setting [3]), the ED50 was 33.9 mg/kg. In experiment [1], the Selectivity is on record as 4.0 and the “Salivation inhibitory action / Bladder contraction inhibitory action” value is 3.6. Besides, in experiment [2] (setting [4]), the ED50 was found to be 9.4 mg/kg.
The matching figures for `CCCOC(C(=O)NC1CCN(Cc2ccccc2)CC1)(c1ccccc1)C1CC1` (centres unmarked) [compound 12]: 22.5 mg/kg, 2.4, 2.3 and 10 mg/kg.
